Experimental data taken from PubChem BioAssay (NCI).
“And” between values parts separate entries of the source, which are not always exact repeats. Equal entries are not always repeated.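 Values below derive from 48-hour exposures of cells grown in 96-well plates, with endpoints linearly interpolated between the two concentrations bracketing the appropriate inhibition level. GI50 marks 50% less growth. TGI: total growth inhibition.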

Columns and labels:
Assay in all cases: inhibition of tumour cell growth, NCI panel, 48 h
MDA-MB-435 = tested on: MDA-MB-435
HCT-116 colon = tested on: HCT-116 colon
MOLT-4 leukemia = tested on: MOLT-4 leukemia
HT29 colon = tested on: HT29 colon
SNB-75 CNS = tested on: SNB-75 CNS
SK-OV-3 ovarian = tested on: SK-OV-3 ovarian
HCC-2998 colon = tested on: HCC-2998 colon
RXF 393 renal = tested on: RXF 393 renal

Compound | GI50 (MDA-MB-435) [µM] | TGI (MDA-MB-435) | GI50 (HCT-116 colon) [µM] | TGI (HCT-116 colon) | GI50 (MOLT-4 leukemia) [µM] | TGI (MOLT-4 leukemia) | GI50 (HT29 colon) [µM] | TGI (HT29 colon) [µM] | GI50 (SNB-75 CNS) [µM] | TGI (SNB-75 CNS) | GI50 (SK-OV-3 ovarian) [µM] | TGI (SK-OV-3 ovarian) | GI50 (HCC-2998 colon) [µM] | TGI (HCC-2998 colon) | GI50 (RXF 393 renal) [µM] | TGI (RXF 393 renal)
Cc1ccc(C(=O)NC(C)C)cc1-c1ccc(C(=O)NCC2CC2)cc1 | > 25 | > 25 µM | > 25 | > 25 µM | > 25 | > 25 µM | > 25 | > 25 | > 25 | > 25 µM | > 25 | > 25 µM | > 25 | > 25 µM | > 25 | > 25 µM
COc1ccc(-c2nc(-c3nc4ccc(Cl)cc4[nH]3)c3ccccn23)cc1 | 2.3 | 7.64 µM | 2.41 | 5.5 µM | > 100 | > 100 µM | 3.66 | 14.2 | 1.87 | 3.94 µM | 2.24 | 4.99 µM | 18.6 | > 100 µM | 1.94 | 3.85 µM
NC(=O)NS(=O)(=O)c1ccc(N2N=C(C(F)(F)F)CC2c2cc(C(F)(F)F)cc(C(F)(F)F)c2)cc1 (centres undefined) | 2.57 | 7.16 µM | 3.07 | 14.7 µM | 4.73 | 55.5 µM | 3.1 | 13 | 2.86 | 15.3 µM | 7.82 | 21.3 µM | 10 | 23.9 µM | 2.86 | 5.77 µM
O=C(Nc1ccncc1)C(=O)c1cn(S(=O)(=O)c2cccc(F)c2)c2ccccc12 | 0.385 | 4.02 µM | 1.38 | > 100 µM | 4.18 | > 100 µM | 1.77 | 14.9 | 2.62 | 17.8 µM | 20.3 | 76.5 µM | 2.2 | 89.3 µM | 8.88 | 66.8 µM
Nc1nc2c(nnn2C2CC(O)C(CO)O2)c(=O)[nH]1 (centres undefined) | 4.35 | > 100 µM | 5.89 | > 100 µM | 2.61 | > 53 µM | 13.5 | > 100 | 7.59 | > 100 µM | 0.937 | > 23.4 µM | 3.63 | > 92 µM | 3.05 | 33.8 µM
O=C1C(Cl)=C(NCCN2CCOCC2)C(=O)c2ncccc21 | 0.267 | 0.372 µM and 0.686 µM | – | 3.51 µM and 3.58 µM | 2.24 | 4.01 µM and 5.27 µM | – | 6.74 | 1.67 | 2.85 µM and 3.58 µM | 2.26 | 3.36 µM and 7.23 µM | 1.73 | 2.85 µM and 3.47 µM | 1.66 | 3.38 µM and 3.06 µM
CC[C@@]1(c2ccccc2)C2=C(CC(C)(C)CC2=O)Nc2[nH]ncc21 | > 100 | > 100 µM | > 100 | > 100 µM | > 100 | > 100 µM | > 100 | > 100 | 14.9 | > 100 µM | > 100 | > 100 µM | > 100 | > 100 µM | > 100 | > 100 µM
O=C(O)CCNC1CCCCC1 | > 100 | > 100 µM | > 100 | > 100 µM | > 100 | > 100 µM | > 100 | > 100 | > 100 | > 100 µM | > 100 | > 100 µM | > 100 | > 100 µM | > 100 | > 100 µM
CCCn1c(=S)sc2c1nc(C)n1c(Nc3ccccc3)nnc21 | 3.22 | 24.1 µM | 4.43 | 17.7 µM | 3.02 | 48.3 µM | 13.1 | 38.3 | 12.9 | 71 µM | 16.8 | 89.1 µM | 3.27 | 12.2 µM | 15.1 | > 100 µM
COc1cc2ncn(-c3cc(OCc4cccs4)c(C(N)=O)s3)c2cc1OC | 0.502 | 1.71 µM | 1.68 | > 25 µM | 1.07 | > 25 µM | 0.875 | > 25 | 5.72 | > 22.4 µM | 1.81 | > 20 µM | 2.29 | > 25 µM | 1.31 | > 15.7 µM
O=C(O)C(=Cc1ccc(-c2ccccc2)cc1)C(=O)O | – | > 64.8 µM | – | 24.7 µM | – | 53.6 µM | – | > 49.3 | – | 28 µM | – | 41.2 µM | – | 21.9 µM | – | 14.5 µM
COc1cc[nH]c1/C=C1\C(=O)Nc2ccc(F)c(C#CC3(O)CCNCC3)c21 | 0.0745 | 0.504 µM | 0.0125 | 2.76 µM | 0.063 | 0.965 µM | 0.0916 | 1.1 | 0.014 | 0.469 µM | 0.0172 | 2.61 µM | 0.368 | 0.979 µM | 0.0204 | 0.201 µM
CCN(CC)CCCC(C)Nc1c2ccc(Cl)cc2nc2ccc(O)cc12 (centres undefined) | 1.77 | 3.32 µM | 1.13 | 3.08 µM | 1.31 | 13.6 µM | 1.22 | 5.39 | 1.62 | 3.86 µM | 3.12 | 16 µM | 2.44 | 6.97 µM | 1.61 | 4.27 µM
CC/C=C\C[C@@H](O)C/C=C1/C(=O)C=C[C@H]1C/C=C\CCCC(=O)OC | 1.93 | 5.86 µM | 0.498 | 2.53 µM | 2.06 | 5.83 µM | 2.36 | 5.74 | 6.17 | 19.6 µM | 6.49 | 19 µM | 2.1 | 3.61 µM | 1.85 | 3.55 µM
Cc1ccc(-c2nc3nc(-c4ccccc4)nc(N4CCCNCC4)c3o2)cc1 | 1.93 | 3.42 µM | 1.31 | 2.65 µM | 1.44 | 3.15 µM | 1.6 | 3.08 | 1.36 | 2.68 µM | 1.81 | 3.27 µM | 2.04 | 4.17 µM | 1.69 | 3.32 µM
C[N+]1=C(/C=C/c2ccc(O)c3ncccc23)C(C)(C)c2ccccc21 | 2.35 | 7.01 µM | 2.86 | 10.5 µM | 3.14 | > 100 µM | 3.19 | 12.6 | 2.26 | 7.78 µM | 2.76 | 12 µM | 2.44 | 6.73 µM | 4 | 16 µM
O=C(O)c1nn(-c2ccccc2-c2n[nH]c(=O)[nH]c2=O)c(=O)[nH]c1=O | – | > 100 µM | – | > 100 µM | – | > 100 µM | – | > 100 | – | > 100 µM | – | > 100 µM | – | > 100 µM | – | > 100 µM
